Article PMC9026148, “Pre-Clinical Study Evaluating Novel Protein Phosphatase 2A Activators as Therapeutics for Neuroblastoma” (Cancers, 2022)

Legend:
[1] = Microsome (oxidative metabolism) stability, mouse; format: in vitro ADME; settings: for half-life at 1 µM: liver microsomes 0.5 mg/mL, NADPH, read-out: T1/2 Mouse; for microsomal CLint at 1 µM: liver microsomes, read-out: CL Mouse
Method: (§1) Microsome stability assays were performed by Bioduro, LLC. Briefly, 2.5 µL (100 µM in DMSO) of test compounds are added to 197.5 µL of human, rat, or mouse microsome preparation (0.633 mg/mL in phosphate buffer) and mixed gently at 37 °C. The reaction is started by adding 50 µL NADPH (5 mM in phosphate buffer) and mixing at 37 °C. The final reaction microsome concentration is 0.5 mg/mL. The reaction is sampled at 0, 5, 15, 30, and 60 min. Reaction aliquots are quenched by adding to 1:1 methanol–acetonitrile containing analytical standards and analyzed by liquid chromatography with tandem mass spectrometry (LC-MS/MS).

[2] = Microsome (oxidative metabolism) stability, human; format: in vitro ADME; settings: for half-life at 1 µM: liver microsomes 0.5 mg/mL, NADPH, read-out: T1/2 Human; for microsomal CLint at 1 µM: liver microsomes, read-out: CL Human
Method: as §1

[3] = tested on: PP2A; experiment: PP2A immunoprecipitation phosphatase assay in SK-N-AS cells; format: cell-based, human; settings: 24 h; for PP2A activation compared with FTY720: 10 μM vs FTY720 5 μM, p ≤ 0.01; for PP2A activation (percent PP2A activity): 10 μM, control 100 ± 0%
Method: SK-N-AS cells (1 × 10^6) were treated with FTY720 (5 μM), 792 (10 μM), or 1154 (10 μM) for 24 h and lysed using HEPES (AC215001000, Thermo Fisher Scientific Inc.), MgCl2 (MX0045-4, EM Science, Gibbstown, NJ, USA), KCl (02-003-741, Thermo Fisher Scientific Inc.), PMSF (Sigma Aldrich), dithiothreitol (EC-601, National Diagnostics, Atlanta, GA, USA), and Igepal CA-630 ([…], Sigma Aldrich) for 20 min on ice. Cell lysates were centrifuged at 17,000 rpm for 30 min at 4 °C. The commercially available PP2A Immunoprecipitation Phosphatase Assay Kit (17-313, EMD Millipore) has been used by other investigators to directly measure PP2A activity and was utilized per manufacturer's protocol to evaluate the activity of PP2A following treatment and compared to untreated cells. Experiments were completed at least in triplicate, and data reported as mean fold change ± standard error of the mean (SEM).

[4] = tested on: SK-N-AS cells; experiment: CellTiter 96 proliferation, SK-N-AS; format: cell-based; settings: Homo sapiens, 24 h
Method: CellTiter 96® Aqueous One Solution Cell Proliferation assay (Promega, Madison, WI, USA) was used to examine proliferation, and alamarBlue® assay (Thermo Fisher Scientific, Inc.) was used to evaluate viability. Cells, concentrations ranging from 5 × 10^3 to 1.5 × 10^4, depending on cell type due to wide variation in growth characteristics between established cell lines and PDX cells, were plated in 96-well plates and treated with increasing doses of 792 or 1154 for 24 h. CellTiter 96® or alamarBlue® dye (10 µL) was added for proliferation and viability assays, respectively. A microplate reader (Epoch Microplate Spectrophotometer, BioTek Instruments, Winooski, VT) measured absorbance at 490 nm for CellTiter 96® and at 570 nm for alamarBlue®, using 600 nm as a reference. […] Experiments were completed with at least three biologic replicates, and data reported as fold change ± SEM.
Supplemental Figure S3: Novel PP2A activating compounds decrease d neuroblastoma proliferation and viability. SK-N-AS and SK-N-BE(2) cells (1.5 x 104) were plated in 96-well plates and treated with increasing doses of nine PP2A activating compounds for 24 […]
novel PP2A activators tested in (A) SK-N-AS and (B) SK-N-BE(2) cells. Similarly, PP2A […]
(D) SK-N-BE(2) cells. Data reported as mean fold change ± SEM, and experiments were repeated with at least three biologic replicates. […]

[5] = tested on: SH-EP cells; experiment: Cell cycle analysis by flow cytometry (PI), SH-EP; format: cell-based, human; settings: 24 h; for Mean % G1 (± SEM) / Mean % G2 (± SEM) / Mean % S (± SEM) / percentage of cells in the S phase / percentage of cells in G1: SH-EP, 15 μM; for percentage of cells in the S phase: untreated 30.9 ± 2.1; for percentage of cells in G1: untreated 42.6 ± 2.4
Method: To evaluate cell cycle, cells (1 × 10^6) were plated and maintained in respective media with reduced FBS (4%) for cell synchronization. […] Cells were washed with phosphate-buffered saline (PBS) and fixed at 4 °C for 30 min with 100% ethanol. Following a second PBS wash, cells were stained with propidium iodide (PI, Invitrogen, Waltham, MA, USA), RNAse A (0.1 mg/mL, Qiagen, Germantown, MD, USA), and 0.1% TritonX (Active Motif, Carlsbad, CA, USA), and FACSCalibur^TM Flow Cytometer (BD Biosciences, Franklin Lakes, NJ, USA) was used for examination. FlowJo software (FlowJo, LLC, Ashland, OR, USA) was used for data analysis. Data reported as mean percentage cells in phase ± SEM.

[6] = tested on: SK-N-AS, SK-N-BE(2), SH-EP, WAC2 cells; experiment: Monolayer wound healing (scratch) migration assay; format: cell-based, human; settings: 36 h; 792 10 μM SK-N-AS, 15 μM others; 1154 10 μM SK-N-AS and SK-N-BE(2), 15 μM SH-EP and WAC2
Method: (§2) Since the established neuroblastoma cell lines grow as adherent cells, migration in SK-N-AS, SK-N-BE(2), SH-EP, and WAC2 cells was examined using monolayer wound healing (scratch) assay. […] Once cells reached 80% confluence, a sterile 200 μL pipette tip was used to make a standard scratch in the cell layer. Photographs of the plates were obtained at 0, 12, 24, and 36 h. ImageJ MRI Wound Healing Tool (http://imagej.nih.gov/ij/ (accessed on 14 October 2019) quantified the open wound area, and data reported as fold change of the open area ± SEM. Invasion was evaluated with a modified Boyden chamber technique. The insert bottoms were coated with collagen type I (10 µg/mL, MP Biomedicals, Santa Ana, CA, USA). The insert tops were coated with a layer of Matrigel^TM (1 mg/mL, 50 μL, BD Biosciences). Cells were treated for 24 h with 792 (SK-N-AS 10 μM; SK-N-BE(2), SH-EP, WAC2 15 μM) or 1154 (SK-N-AS, SK-N-BE(2) 10 μM; SH-EP, WAC2 15 μM), plated (4 × 10^4 cells), and allowed to invade through the membrane for 24 h. Insert membranes were fixed using 4% paraformaldehyde, stained with 1% crystal violet for 15 min, photographed, and invasion quantified with ImageJ (http://imagej.nih.gov/ij/ (accessed on 10 September 2019)). Invasion data were reported as mean percent membrane occupied by cells ± SEM. Experiments were completed with at least three biologic replicates.

[7] = tested on: SK-N-AS, SK-N-BE(2), SH-EP, WAC2 cells; experiment: Modified Boyden chamber invasion assay; format: cell-based, human; settings: 24-h treatment, same doses as scratch assay; four cell lines
Method: as §2

| Structure (SMILES) | half-life at 1 µM [1] [min] | microsomal CLint at 1 µM [1] [µL/min/mg] | half-life at 1 µM [2] [min] | microsomal CLint at 1 µM [2] [µL/min/mg] | PP2A activation compared with FTY720 [3] | PP2A activation (percent PP2A activity) [3] [%] | IC50 [4] [µM] | Mean % G1 (± SEM) [5] | Mean % G2 (± SEM) [5] | Mean % S (± SEM) [5] | percentage of cells in the S phase [5] [%] | percentage of cells in G1 [5] [%] | Migration (fold change of open wound area) [6] | Invasion [7] | percent of cells in subG1 ([5]; SH-EP cells) |
| --- | --- | --- | --- | --- | --- | --- | --- | --- | --- | --- | --- | --- | --- | --- | --- |
| O=S(=O)(NC1CCCC(N2c3ccccc3CCc3ccccc32)C1O)c1ccc(OC(F)(F)F)cc1 (centres unmarked) [DBK-1154] | 6 | 234 | 10 | 134 | significantly more than FTY720 | 134.8 ± 18.4 | 22.4 | 52.0 (± 2.2) % | 14.6 (± 4.9) % | 26.3 (± 2.0) % | 26.3 ± 2 | 52 ± 2.2 | significantly decreased | significantly decreased | – |
| O=S(=O)(N[C@H]1COC[C@@H](n2c3ccc(Cl)cc3c3cc(Cl)ccc32)[C@@H]1O)c1ccc(OC(F)(F)F)cc1 [ATUX-792] | > 256 | < 5 | > 256 | < 5 | significantly more than FTY720 | 117.5 ± 5.6 | 23.9 | 58.4 (± 2.3) % | 12.1 (± 2.6) % | 21.0 (± 1.4) % | 21 ± 1.4 | 58.4 ± 2.3 | significantly decreased | significantly decreased | significant increase in the percent of cells in subG1 |
